This is an account of results in patent US10961242B2, “Compounds as autotaxin inhibitors and pharmaceutical compositions comprising the same” (LegoChem Biosciences, Inc., priority 2018, dated 2021).

Counter-ions that a name gives are not always drawn. Like-named read-outs stand apart in the source and are kept apart here.

In assay [1] the test system is LPA production in blood serum caused by autotoxin. Briefly: Inhibitory activity on LPA production in mouse blood serum. The format is biochemical. To be noted: mouse blood serum (m), 18:1 LPC, 3 hours at 37° C. As to the method:
After 100-fold dilution of each test compound solution (5 μL) (10 mM, 100%, dimethyl sulfoxide) with 495 μL of methanol, 3 μL of the diluted methanol solution (1% dimethyl sulfoxide) was mixed with 57 μL of human or mouse blood serum solution in a 1.5 mL tube. […] Subsequently, a solution prepared by diluting 10 mg/mL 18:1 LPC solution (50% ethanol) with blood serum to have concentration of 375 μg/mL was aliquoted in an amount of 2 μL to each tube so as to have 50 μL. Each tube was kept for 3 hours in a water bath at 37° C. to allow a reaction. To the tube obtained after the reaction, 100 μL of 0.5 μM 17:0 LPA solution (chloroform/methanol/water=65/35/8) was aliquoted and mixed therein. Centrifuge was carried out for 10 minutes using a centrifuge at conditions of 14,000 rpm and 4° C. 100 μL of 50% methanol solution is aliquoted first to a 96-well polypropylene plate (Agilent Technology 5042-1385), and the supernatant (50 μL) in a tube after the centrifuge was carefully transferred to the plate followed by mixing. After covering it with Well cap (Thermo 276011), analysis was carried out by LC-MS/MS (Agilent 1260).
In the following Table 3, the mouse blood serum was described as (m) and human blood serum was described as (h).

A further assay addresses human ENPP2 (Homo sapiens (Human), UniProt Q13822). Kind of assay: Inhibitory activity on human ENPP2 (FS-3 assay). To be noted: read-out: IC50. The format is biochemical. As to the method: Two-fold dilution of each test compound solution (10 μM, 100% dimethyl sulfoxide) is carried out on 96-well V bottom plate (Costar 3363). After ten-fold dilution of each the test compound solution (100% dimethyl sulfoxide) with deionized distilled water, 10 μL of the diluted each mpound solution (10% dimethyl sulfoxide) was aliquoted to a black flat bottom 96-well plate (Costar 3915).

The mark [2] stands for this setting: human ENPP2, FS-3 substrate, 30 min at 37° C.

With `O=C(CN1CCC(c2cnc(NC3Cc4ccccc4C3)nc2)CC1)N1CCc2[nH]nnc2C1` [Compound 22, 2-(4-{2-[(2,3-dihydro-1H-inden-2-yl)amino]pyrimidin-5-yl}piperidin-1-yl)-1-{1H,4H,5H,6H,7H-[1,2,3]triazolo[4,5-c]pyridin-5-yl}ethan-1-one], the IC50 (as a rule, the concentration that inhibits the measured activity by half) in assay [1] was determined as 57 nM; at human ENPP2 (setting [2]), 2.9 nM.
On to `O=C(Cc1nnc(-c2cnc(NCc3cccc(OC(F)(F)F)c3)nc2)o1)N1CCc2[nH]nnc2C1` [Compound 34, 1-{1H,4H,5H,6H,7H-[1,2,3]triazolo[4,5-c]pyridin-5-yl}-2-{5-[2-({[3-(trifluoromethoxy)phenyl]methyl}amino)pyrimidin-5-yl]-1,3,4-oxadiazol-2-yl}ethan-1-one], for which the IC50 turned out to be 52 nM in assay [1] and 2 nM on human ENPP2 (setting [2]).
Take `O=C(CCN1CCc2[nH]nnc2C1)N1CCC(c2cnc(NC3Cc4ccccc4C3)nc2)CC1` [Compound 14, 1-(4-{2-[(2,3-dihydro-1H-inden-2-yl)amino]pyrimidin-5-yl}piperidin-1-yl)-3-{1H,4H,5H,6H,7H-[1,2,3]triazolo[4,5-c]pyridin-5-yl}propan-1-one]: the figures for the IC50 (in assay [1]; on human ENPP2 (setting [2])) were 8 nM and 2.4 nM, respectively.
On to `O=C(NC[C@H]1CN(c2ccc3[nH]c(=O)oc3c2)C(=O)O1)c1cnc(NCc2cccc(OC(F)(F)F)c2)nc1` [Compound 10, N-{[(5S)-2-oxo-3-(2-oxo-2,3-dihydro-1,3-benzoxazol-6-yl)-1,3-oxazolidin-5-yl]methyl}-2-({[3-(trifluoromethoxy)phenyl]methyl}amino)pyrimidine-5-carboxamide], for which the figures for the IC50 (in assay [1]; on human ENPP2) were 10 nM and 2.8 nM, respectively.
On to `O=C(Cn1cc(-c2cnc(NC3Cc4ccccc4C3)nc2)c(CN2CCNCC2)n1)N1CCc2[nH]nnc2C1` [Compound 89, 2-(4-{2-[(2,3-dihydro-1H-inden-2-yl)amino]pyrimidin-5-yl}-3-(piperazin-1-ylmethyl)-1H-pyrazol-1-yl)-1-{1H,4H,5H,6H,7H-[1,2,3]triazolo[4,5-c]pyridin-5-yl}ethan-1-one], for which the IC50 in assay [1] turned out to be 21 nM; on human ENPP2 (setting [2]), 4.2 nM.
On to `O=C(NCCC(=O)N1CCc2[nH]nnc2C1)c1cnc(NCc2cccc(OC(F)(F)F)c2)nc1` [Compound 2, N-(3-oxo-3-{1H,4H,5H,6H,7H-[1,2,3]triazolo[4,5-c]pyridin-5-yl}propyl)-2-({[3-(trifluoromethoxy)phenyl]methyl}amino)pyrimidine-5-carboxamide], for which the values for the IC50 (in assay [1]; at human ENPP2 (setting [2])) were 23 nM and 2.1 nM, respectively.
With `O=C(CCN1CCc2[nH]nnc2C1)N1CCN(c2cnc(NCc3cccc(OC(F)(F)F)c3)nc2)CC1` [Compound 13, 3-{1H,4H,5H,6H,7H-[1,2,3]triazolo[4,5-c]pyridin-5-yl}-1-{4-[2-({[3(trifluoromethoxy)phenyl]methyl}amino)pyrimidin-5-yl]piperazin-1-yl}propan-1-one], the results for the IC50 (in assay [1]; at human ENPP2 (setting [2])) were 13 nM and 3.7 nM, respectively.
Consider `O=C(CCN1CCc2[nH]nnc2C1)N1CCN(c2cnc(NC3Cc4ccccc4C3)nc2)CC1` [Compound 12, 1-(4-{2-[(2,3-dihydro-1H-inden-2-yl)amino]pyrimidin-5-yl}piperazin-1-yl)-3-{1H,4H,5H,6H,7H-[1,2,3]triazolo[4,5-c]pyridin-5-yl}propan-1-one], for which the IC50 in assay [1] amounted to 11 nM; at human ENPP2 (setting [2]), 3.2 nM.
Regarding `O=C(CN1CCN(c2cnc(NC3Cc4ccccc4C3)nc2)CC1)N1CCc2[nH]nnc2C1` [Compound 20, 2-(4-{2-[(2,3-dihydro-1H-inden-2-yl)amino]pyrimidin-5-yl}piperazin-1-yl)-1-{1H,4H,5H,6H,7H-[1,2,3]triazolo[4,5-c]pyridin-5-yl}ethan-1-one], the IC50 in assay [1] amounted to 29 nM; on human ENPP2 (setting [2]), 2.6 nM.
As for `O=C(Cc1nnc(-c2cnc(NC3Cc4ccccc4C3)nc2)o1)N1CCc2[nH]nnc2C1` [Compound 33, 2-(5-(2-((2,3-dihydro-1H-inden-2-yl)amino)pyrimidin-5-yl)-1,3,4-oxadiazol-2-yl)-1-(1,4,6,7-tetrahydro-5H-[1,2,3]triazolo[4,5-c]pyridin-5-yl) ethan-1-one], the half-inhibitory concentration (IC50) at human ENPP2 (setting [2]) was 2.4 nM.
On to `O=C(Cn1cc(-c2cnc(NC3Cc4ccccc4C3)nc2)c(CCN2CCOCC2)n1)N1CCc2[nH]nnc2C1` [Compound 93, 2-(4-{2-[(2,3-dihydro-1H-inden-2-yl)amino]pyrimidin-5-yl}-3-[2-(morpholin-4-yl)ethyl]-1H-pyrazol-1-yl)-1-{1H,4H,5H,6H,7H-[1,2,3]triazolo[4,5-c]pyridin-5-yl}ethan-1-one], for which the IC50 at human ENPP2 (setting [2]) is 2.1 nM.
Take `O=C1O[C@@H](CN2CCN(c3cnc(NC4Cc5ccccc5C4)nc3)CC2)CN1c1ccc2[nH]c(=O)oc2c1` [Compound 26, 6-[(5S)-5-[(4-{2-[(2,3-dihydro-1H-inden-2-yl)amino]pyrimidin-5-yl}piperazin-1-yl)methyl]-2-oxo-1,3-oxazolidin-3-yl]-2,3-dihydro-1,3-benzoxazol-2-one]: on human ENPP2 (setting [2]), the IC50 was 13.1 nM.
In the case of `O=C(Cc1nnc(-c2cnc(NC3Cc4ccccc4C3)nc2)o1)N1CCc2[nH]c(=O)ccc2C1` [Compound 39, 6-[2-(5-{2-[(2,3-dihydro-1H-inden-2-yl)amino]pyrimidin-5-yl}-1,3,4-oxadiazol-2-yl)acetyl]-1,2,5,6,7,8-hexahydro-1,6-naphthyridin-2-one], the IC50 on human ENPP2 (setting [2]) worked out at 10.6 nM.
With `O=C(Cc1nnc(-c2cnc(NC3Cc4ccccc4C3)nc2)o1)N1CCc2cn[nH]c2C1` [Compound 44, 2-(5-{2-[(2,3-dihydro-1H-inden-2-yl)amino]pyrimidin-5-yl}-1,3,4-oxadiazol-2-yl)-1-{1H,4H,5H,6H,7H-pyrazolo[3,4-c]pyridin-6-yl}ethan-1-one], the IC50 on human ENPP2 (setting [2]) stood at 16.6 nM.
Same read-out and setting: for `O=C(Cn1cc(-c2cnc(NC3Cc4ccccc4C3)nc2)c(CN2CCN(CC(F)F)CC2)n1)N1CCc2[nH]nnc2C1` [Compound 92, 2-(3-{[4-(2,2-difluoroethyl)piperazin-1-yl]methyl}-4-{2-[(2,3-dihydro-1H-inden-2-yl)amino]pyrimidin-5-yl}-1H-pyrazol-1-yl)-1-{1H,4H,5H,6H,7H-[1,2,3]triazolo[4,5-c]pyridin-5-yl}ethan-1-one] the value was 2.3 nM; for `O=C(NCCC(=O)N1CCc2[nH]nnc2C1)c1cnc(NC2Cc3ccccc3C2)nc1` [Compound 1, 2-[(2,3-dihydro-1H-inden-2-yl)amino]-N-(3-oxo-3-{1H,4H,5H,6H,7H-[1,2,3]triazolo[4,5-c]pyridin-5-yl}propyl)pyrimidine-5-carboxamide], 3.3 nM.
With `O=C(Cc1nnc(-c2cnc(NC3Cc4ccccc4C3)nc2)o1)N1CCc2nc[nH]c2C1` [Compound 38, 2-(5-{2-[(2,3-dihydro-1H-inden-2-yl)amino]pyrimidin-5-yl}-1,3,4-oxadiazol-2-yl)-1-{3H,4H,5H,6H,7H-imidazo[4,5-c]pyridin-5-yl}ethan-1-one], at human ENPP2 (setting [2]), the IC50 amounted to 4 nM.
Regarding `O=C(CN1CCN(c2cnc(NC3Cc4ccccc4C3)nc2)CC1)c1ccc2[nH]c(=O)oc2c1` [Compound 28, 6-[2-(4-{2-[(2,3-dihydro-1H-inden-2-yl)amino]pyrimidin-5-yl}piperazin-1-yl)acetyl]-2,3-dihydro-1,3-benzoxazol-2-one], the IC50 on human ENPP2 (setting [2]) is 3.1 nM.
Regarding `O=C(NCC(=O)N1CCc2[nH]nnc2C1)c1cnc(NCc2cccc(OC(F)(F)F)c2)nc1` [Compound 3, N-(2-oxo-2-{1H,4H,5H,6H,7H-[1,2,3]triazolo[4,5-c]pyridin-5-yl}ethyl)-2-({[3-(trifluoromethoxy)phenyl]methyl}amino)pyrimidine-5-carboxamide], the IC50 on human ENPP2 (setting [2]) came out at 14.3 nM.
With `CC(NC(=O)c1cnc(NCc2cccc(OC(F)(F)F)c2)nc1)C(=O)N1CCc2[nH]nnc2C1` (centres unmarked) [Compound 4, N-(1-oxo-1-{1H,4H,5H,6H,7H-[1,2,3]triazolo[4,5-c]pyridin-5-yl}propan-2-yl)-2-({[3-(trifluoromethoxy)phenyl]methyl}amino)pyrimidine-5-carboxamide], the IC50 on human ENPP2 (setting [2]) is 18.9 nM.
As for `O=C(Cn1cc(-c2cnc(NC3Cc4ccccc4C3)nc2)c(CN2CCCNCC2)n1)N1CCc2[nH]nnc2C1` [Compound 90, 2-[3-(1,4-diazepan-1-ylmethyl)-4-{2-[(2,3-dihydro-1H-inden-2-yl)amino]pyrimidin-5-yl}-1H-pyrazol-1-yl]-1-{1H,4H,5H,6H,7H-[1,2,3]triazolo[4,5-c]pyridin-5-yl}ethan-1-one. HCl], the IC50 at human ENPP2 (setting [2]) stood at 2.6 nM.
Turning to `O=C(Cc1nnc(-c2cnc(NC3Cc4ccccc4C3)nc2)o1)N1CCc2[nH]c(=O)[nH]c2C1` [Compound 40, 5-[2-(5-{2-[(2,3-dihydro-1H-inden-2-yl)amino]pyrimidin-5-yl}-1,3,4-oxadiazol-2-yl)acetyl]-1H,2H,3H,4H,5H,6H,7H-imidazo[4,5-c]pyridin-2-one], the IC50 at human ENPP2 (setting [2]) is 10.1 nM.
On to `O=C(Cc1nnc(-c2cnc(NC3Cc4ccccc4C3)nc2)o1)N1CCc2[nH]ncc2C1` [Compound 42, 2-(5-{2-[(2,3-dihydro-1H-inden-2-yl)amino]pyrimidin-5-yl}-1,3,4-oxadiazol-2-yl)-1-{1H,4H,5H,6H,7H-pyrazolo[4,3-c]pyridin-5-yl}ethan-1-one], for which, at human ENPP2 (setting [2]), the IC50 was found to be 8.1 nM.
